Assay results reported in PMC5057115, “Cathelicidins in the Tasmanian devil (Sarcophilus harrisii)” (Scientific Reports, 2016).
Where no end group is shown, it is not given here.

Columns and labels:
[1] = system: P. multocida*; type: cell-based, Pasteurella multocida; conditions: broth microdilution (CLSI), 64 to 0.125 μg/mL, 24 h at 35 °C with 5% CO2; animal isolate
Description: (§1) Tissue expression of devil cathelicidin prepropeptides was determined by real-time PCR on a range of secretory, immune, reproductive, gastrointestinal and respiratory tissues, as well as BLAST searches of the milk transcriptome. Opportunistic tissue samples for real-time PCR were collected from Taronga Zoo (Sydney) from devils which were subject to euthanasia due to old age and advanced disease. The mature peptides of all six devil cathelicidins were synthesised by ChinaPeptides Co. Ltd. and their antimicrobial activity against bacterial and fungal pathogens determined by broth microdilution susceptibility assay according to clinical laboratory standards institute guidelines. Antimicrobial activity was expressed as minimum inhibitory concentration (MIC). Cytotoxicity was assessed in the human cell line A549 and haemolytic activity determined against human blood. Statistical significance of peptide effect on cell survival in comparison to the untreated control was calculated using a one sample t-test. […]
(§2) Two antibiotics, ampicillin and tetracycline, were included as a positive control for bacteria, and the antifungal drug fluconazole for fungi. […] Colonies were resuspended in saline and the OD530 measured with a McFarland reader. […] Assays Antimicrobial activity was expressed as minimum inhibitory concentration (MIC), which was defined as the lowest concentration of cathelicidin preventing visible growth, relative to the negative control. […]
(§3) DMEM and positive control of dimethylsulfoxide (DMSO) (1%) were also included. Following incubation for a further 24 hours, cell viability was determined using alamar blue (Invitrogen) which was added to each well. The plates were incubated for 24 hours, then the absorption measured at 570nm and 620nm using the Victor 3 multilabel plate reader (PerkinElmer). […] To x i city of cathelicidins was calculated according to Invitrogen recommendations and expressed as percentage cell survival compared to the untreated growth control. […]
(§4) Haemolytic activity was assessed using 10mL of human blood collected into potassium -ED T A […]

[2] = system: S. pyogenes ATCC 19615; type: cell-based; conditions: broth microdilution (CLSI), 64 to 0.125 μg/mL, 24 h at 35 °C with 5% CO2; ATCC strain
Description: as §1, with “t-test. Pouch microbiome analysis was performed on swabs from the pouch of lactating and non-lactating devils to detect changes in microbe populations. Pouch swab collection was carried out in accordance with the Save the Tasmanian Devil Program and was approved by the Animal Ethics Committee of the University of Sydney (permit number 681).” for “t-test.”
(§5) base (YNB) for fungi, from a concentration of 64μg/mL to 0.125μg/mL in a final volume of 100 μL .
(§6) Two antibiotics, ampicillin and tetracycline, were included as a positive control for bacteria, and the antifungal drug fluconazole for fungi. A well containing cells and media only was used as a “no drug” control to ensure that cultures grew normally. Bacteria were subcultured on Mueller Hinton agar (MHA) or Sheep blood agar (BA) for 24 hours at 35 °C for Staphylococcus spp., Pseudomonas spp., Enterococcus spp. and E.coli, with 5% CO2 for Streptococcus spp., K.pneumoniae, P.multocida, L.monocytogenes and N.asteroides. Similarly, fungi were subcultured on Sabouraud agar (SAB) at 35 °C for 24 hours prior to the test. Colonies were resuspended in saline and the OD530 measured with a McFarland reader. If necessary the suspension was diluted to 0.45-0.55 McFarland units with saline. Following a 1:150 dilution for bacteria and twostep dilution for fungi (1:50, 1:20), 100 μL of microorganisms (1x106 – 5 x10^5 cells/mL) were pipetted into wells 2-12, the first well acting as a negative control. Colony counts were performed using a 1:1000 dilution for bacteria and 1:10 for fungi spread onto MHA/BA or SAB plates respectively. The 96 well microdilution and agar plates were incubated for 24 hours at 35 °C (Escherichia coli, Staphylococcus spp., Enterococcus spp. and Pseudomonas spp.), with 5% CO2 (Streptococcus spp. Pasteurella multocida, Klebsiella pneumoniae, Listeria monocytogenes a nd Nocardia asteroids) for bacteria, and 35 °C for 48 hours (Candida spp .) or 72 hours (Cryptococcus spp.) for fungi. Assays Antimicrobial activity was expressed as minimum inhibitory concentration (MIC), which was defined as the lowest concentration of cathelicidin preventing visible growth, relative to the negative control. […]
(§7) DMEM and positive control of dimethylsulfoxide (DMSO) (1%) were also included. Following incubation for a further 24 hours, cell viability was determined using alamar blue (Invitrogen) which was added to each well. The plates were incubated for 24 hours, then the absorption measured at 570nm and 620nm using the Victor 3 multilabel plate reader (PerkinElmer). The assay was performed on two separate occasions. To x i city of cathelicidins was calculated according to Invitrogen recommendations and expressed as percentage cell survival compared to the untreated growth control. A significant difference between cathelicidin treated and control cell survival was tested using a o ne sample t-test (p<0.05).
as §4
(§8) vacutainers (BD). […]

[3] = system: C. glabrata; type: cell-based; conditions: broth microdilution (CLSI), YNB, 64 to 0.125 μg/mL, 48 hours at 35 °C; human clinical isolate
Description: as §1, with “t-test. Pouch microbiome analysis was performed on swabs from the pouch of lactating and non-lactating devils to detect changes in microbe populations. Pouch swab collection was carried out in accordance with the Save the Tasmanian Devil Program and was approved by the Animal Ethics Committee of the University of Sydney (permit number 681).” for “t-test.”
as §5, §6, §7, §4, §8

[4] = system: S. lutetiensis; type: cell-based; conditions: broth microdilution (CLSI), 64 to 0.125 μg/mL, 24 h at 35 °C with 5% CO2; human clinical isolate
Description: as §1, with “t-test. Pouch microbiome analysis was performed on swabs from the pouch of lactating and non-lactating devils to detect changes in microbe populations. Pouch swab collection was carried out in accordance with the Save the Tasmanian Devil Program and was approved by the Animal Ethics Committee of the University of Sydney (permit number 681).” for “t-test.”
as §5, §6, §7, §4, §8

[5] = system: S. mutans; type: cell-based; conditions: broth microdilution (CLSI), 64 to 0.125 μg/mL, 24 h at 35 °C with 5% CO2; human clinical isolate
Description: as §1, with “t-test. Pouch microbiome analysis was performed on swabs from the pouch of lactating and non-lactating devils to detect changes in microbe populations. Pouch swab collection was carried out in accordance with the Save the Tasmanian Devil Program and was approved by the Animal Ethics Committee of the University of Sydney (permit number 681).” for “t-test.”
as §5, §6, §7, §4, §8

[6] = system: S. oralis/mitis group; type: cell-based; conditions: broth microdilution (CLSI), 64 to 0.125 μg/mL, 24 h at 35 °C with 5% CO2; human clinical isolate
Description: as §1, with “t-test. Pouch microbiome analysis was performed on swabs from the pouch of lactating and non-lactating devils to detect changes in microbe populations. Pouch swab collection was carried out in accordance with the Save the Tasmanian Devil Program and was approved by the Animal Ethics Committee of the University of Sydney (permit number 681).” for “t-test.”
as §5, §6, §7, §4, §8

[7] = system: C. albicans; type: cell-based; conditions: broth microdilution (CLSI), YNB, 64 to 0.125 μg/mL, 48 hours at 35 °C; human clinical isolate
Description: as §1, with “t-test. Pouch microbiome analysis was performed on swabs from the pouch of lactating and non-lactating devils to detect changes in microbe populations. Pouch swab collection was carried out in accordance with the Save the Tasmanian Devil Program and was approved by the Animal Ethics Committee of the University of Sydney (permit number 681).” for “t-test.”
as §5, §6, §7, §4, §8

[8] = system: S. equi*; type: cell-based; conditions: broth microdilution (CLSI), 64 to 0.125 μg/mL, 24 h at 35 °C with 5% CO2; animal isolate
Description: as §1, with “t-test. Pouch microbiome analysis was performed on swabs from the pouch of lactating and non-lactating devils to detect changes in microbe populations. Pouch swab collection was carried out in accordance with the Save the Tasmanian Devil Program and was approved by the Animal Ethics Committee of the University of Sydney (permit number 681).” for “t-test.”
as §5, §6, §7, §4, §8

[9] = system: N. asteroides*; type: cell-based; conditions: broth microdilution (CLSI), 64 to 0.125 μg/mL, 24 h at 35 °C with 5% CO2; animal isolate
Description: as §1, with “t-test. Pouch microbiome analysis was performed on swabs from the pouch of lactating and non-lactating devils to detect changes in microbe populations. Pouch swab collection was carried out in accordance with the Save the Tasmanian Devil Program and was approved by the Animal Ethics Committee of the University of Sydney (permit number 681).” for “t-test.”
as §5, §6, §7, §4, §8

[10] = system: S. salivarius; type: cell-based; conditions: broth microdilution (CLSI), 64 to 0.125 μg/mL, 24 h at 35 °C with 5% CO2; human clinical isolate
Description: as §1, with “t-test. Pouch microbiome analysis was performed on swabs from the pouch of lactating and non-lactating devils to detect changes in microbe populations. Pouch swab collection was carried out in accordance with the Save the Tasmanian Devil Program and was approved by the Animal Ethics Committee of the University of Sydney (permit number 681).” for “t-test.”
as §5, §6, §7, §4, §8

[11] = system: S. dysgalactiae subs. equisimilis; type: cell-based; conditions: broth microdilution (CLSI), 64 to 0.125 μg/mL, 24 h at 35 °C with 5% CO2; human clinical isolate
Description: as §1, with “t-test. Pouch microbiome analysis was performed on swabs from the pouch of lactating and non-lactating devils to detect changes in microbe populations. Pouch swab collection was carried out in accordance with the Save the Tasmanian Devil Program and was approved by the Animal Ethics Committee of the University of Sydney (permit number 681).” for “t-test.”
as §5, §6, §7, §4, §8

[12] = system: S. agalactiae; type: cell-based; conditions: broth microdilution (CLSI), 64 to 0.125 μg/mL, 24 h at 35 °C with 5% CO2; human clinical isolate
Description: as §1, with “t-test. Pouch microbiome analysis was performed on swabs from the pouch of lactating and non-lactating devils to detect changes in microbe populations. Pouch swab collection was carried out in accordance with the Save the Tasmanian Devil Program and was approved by the Animal Ethics Committee of the University of Sydney (permit number 681).” for “t-test.”
as §5, §6, §7, §4, §8

[13] = system: S. agalactiae ATCC 12386; type: cell-based; conditions: broth microdilution (CLSI), 64 to 0.125 μg/mL, 24 h at 35 °C with 5% CO2; ATCC strain
Description: as §1, with “t-test. Pouch microbiome analysis was performed on swabs from the pouch of lactating and non-lactating devils to detect changes in microbe populations. Pouch swab collection was carried out in accordance with the Save the Tasmanian Devil Program and was approved by the Animal Ethics Committee of the University of Sydney (permit number 681).” for “t-test.”
as §5, §6, §7, §4, §8

[14] = system: S. anginosus; type: cell-based; conditions: broth microdilution (CLSI), 64 to 0.125 μg/mL, 24 h at 35 °C with 5% CO2; human clinical isolate
Description: as §1, with “t-test. Pouch microbiome analysis was performed on swabs from the pouch of lactating and non-lactating devils to detect changes in microbe populations. Pouch swab collection was carried out in accordance with the Save the Tasmanian Devil Program and was approved by the Animal Ethics Committee of the University of Sydney (permit number 681).” for “t-test.”
as §5, §6, §7, §4, §8

[15] = system: L. monocytogenes*; type: cell-based, Listeria monocytogenes; conditions: broth microdilution (CLSI), 64 to 0.125 μg/mL, 24 h at 35 °C with 5% CO2; animal isolate
Description: as §1, with “t-test. Pouch microbiome analysis was performed on swabs from the pouch of lactating and non-lactating devils to detect changes in microbe populations.” for “t-test.”
as §2
(§9) 570nm and 620nm using the Victor 3 multilabel plate reader (PerkinElmer). […] To x i city of cathelicidins was calculated according to Invitrogen recommendations and expressed as percentage cell survival compared to the untreated growth control. […]
(§10) Haemolytic activity was assessed using 10mL of human blood collected into potassium -ED T A vacutainers (BD). […]

[16] = system: P. aeruginosa ATCC 27853; assay: microbe, parasite or virus in culture; type: cell-based, Pseudomonas aeruginosa; conditions: ATCC 27853, 24 h
Description: as §1, with “t-test. Pouch microbiome analysis was performed on swabs from the pouch of lactating and non-lactating devils to detect changes in microbe populations. Pouch swab collection was carried out in accordance with the Save the Tasmanian Devil Program and was approved by the Animal Ethics Committee of the University of Sydney (permit number 681).” for “t-test.”
as §5
(§11) Two antibiotics, ampicillin and tetracycline, were included as a positive control for bacteria, and the antifungal drug fluconazole for fungi. A well containing cells and media only was used as a “no drug” control to ensure that cultures grew normally. Bacteria were subcultured on Mueller Hinton agar (MHA) or Sheep blood agar (BA) for 24 hours at 35 °C for Staphylococcus spp., Pseudomonas spp., Enterococcus spp. and E.coli, with 5% CO2 for Streptococcus spp., K.pneumoniae, P.multocida, L.monocytogenes and N.asteroides. Similarly, fungi were subcultured on Sabouraud agar (SAB) at 35 °C for 24 hours prior to the test. Colonies were resuspended in saline and the OD530 measured with a McFarland reader. If necessary the suspension was diluted to 0.45-0.55 McFarland units with saline. […] Assays Antimicrobial activity was expressed as minimum inhibitory concentration (MIC), which was defined as the lowest concentration of cathelicidin preventing visible growth, relative to the negative control. […]
as §9, §10

[17] = system: E. faecalis ATCC 29212; assay: microbe, parasite or virus in culture; type: cell-based, Enterococcus faecalis; conditions: ATCC 29212, 24 h
Description: as §1, with “t-test. Pouch microbiome analysis was performed on swabs from the pouch of lactating and non-lactating devils to detect changes in microbe populations. Pouch swab collection was carried out in accordance with the Save the Tasmanian Devil Program and was approved by the Animal Ethics Committee of the University of Sydney (permit number 681).” for “t-test.”
as §5, §11, §9, §10

[18] = system: E. coli; type: cell-based, Escherichia coli; conditions: broth microdilution (CLSI), 64 to 0.125 μg/mL, 24 h at 35 °C; human clinical isolate
Description: as §1, §2, §3, §4

Measured: MIC

KRMGIFHLFWAGLRKLGNLIKNKIQQGIENFLG [Saha-CATH3]
>64 µg/mL: [1] | [2] | [3] | [4] | [5] | [6] | [7] | [8] | [9] | [10] | [11] | [12] | [13] | [14] | [15] | [16] | [17] | [18]
